The values below are quoted from earlier work in US12016850B2, “Modified release pharmaceutical formulations comprising deferiprone” (Chiesi Farmaceutici S.p.A., priority 2022, dated 2024).

The structures appear in SMILES notation.

For the data set the following is noted: background statement, species not given.

By half-life is commonly meant the time needed for the level to fall by half in the phase considered. For the compound `Cc1c(O)c(=O)ccn1C` [Deferiprone, 3-hydroxy-1,2-dimethylpyridin-4-one], the half-life is 2 to 3 h.
